Reference: patent US8901305B2, “Aryl lactam kinase inhibitors” (Bristol-Myers Squibb Company, priority 2012, dated 2014)

What was measured:
GST-Xa-hAAK1 = molecular target: T1, GST-Xa-hAAK1 (Homo sapiens, UniProt Q2M2I8); test: AAK1 kinase assay; type: biochemical; details: ATP 22 μM, 3 hours at room temperature
T1 construct: made in house
Method in brief: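 Bacterially expressed GST-Xa-hAAK1 was combined with substrates and compounds (eleven concentrations) and incubated 3 h at room temperature, then stopped with EDTA. Fluorescent substrate and phosphorylated product were separated electrophoretically (Caliper LabChip), and IC50 values came from non-linear regression.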

[1] = molecular target: T2, AAK1 (full length human) with AP2M1 in HEK293F cells (Homo sapiens, UniProt Q2M2I8); test: HEK281 cell-based assay (phospho-mu2 Western blot in transfected HEK293F cells); details: 3 hours, inhibition of mu2 phosphorylation
T2 construct: expressed in transfected cells; host or cells: HEK293F
Procedure: HEK293F cells were cultured in media containing DMEM (Gibco, cat. #11965), 10% FBS (SAFC Biosciences, cat. #12103C), 1×GPS (glutamine, penicillin and streptomycin). On day one, cells were plated on a 10 cm dish so that they are ˜80% confluent at time of transfection. Roughly 12 million cells were in a 10 cm dish at time of transfection. On day two, each dish was transfected with 48 ug DNA and 144 ul Lipofectamine 2000 (Invitrogen, cat. #11668-019). The DNA was comprised of a mixture (per 10 cm dish) containing 3 ug AAK1/HA/pIRES (full length human, NCBI accession no. NP_055726.2), 45 μg Flag/AP2MI/pcDNA (full length human), and 1.5 ml OPTI-MEM. The Lipofectamine 2000 is made up of a mixture (per 10 cm dish) containing 144 μl Lipofectamine 2000 and 1.5 ml OPTI-MEM. Each mixture was transferred to individual 15 ml tubes and incubated at RT for 5 minutes, and then the two mixes were combined and incubated at RT for 20 minutes. Growth media was then aspirated from each 10 cm plate and replaced with 10 ml of DMEM+10% FBS (no GPS). Finally, 3 ml DNA/Lipofectamine mix was added to each 10 cm dish and mix gently followed by incubate of plate overnight at 37° C. and 5% CO2.
On day three, compounds were diluted in 100% DMSO at 1000× final concentration, followed by 3-fold serial dilutions for a total of 5 concentrations tested. Four compounds were tested per 10 cm dish. One ul of each compound dilution was then pipetted into a deep-well, 96-well plate, followed by addition of 500 μl DMEM+0.5% FBS into each well for a 2× final concentration of each compound. Cells were resuspended in a 10 cm dish by simple pipetting (HEK293 cells come off the plate that easy at this point) and then transferred to a 50 ml conical tube and pelleted by centrifugation at 1000 rpm for 5 min. Cell pellets were then resuspended in 2.75 ml DMEM+0.5% FBS per 10 cm dish and 100 μl of cell suspension transferred into each well of 96-well TC plate. Finally, 100 μl of 2× compound diluted in DMEM+0.5% FBS was then added into wells containing cell suspension for a 1× final concentration. Plates were then incubated at 37° C. and 5% CO2 for 3 hours followed by transferring of cell suspensions from each well into 12-tube PCR strips. The PCR strips were spun in a tip rack at 1000 rpm for 5 minutes to pellet cells and media was then removed by pipetting without disturbing the cell pellet.
To prepare for Western Blot analysis, cell pellets were resuspend in 40 ul 1×LDS-PAGE sample buffer (Invitrogen, cat. # NP0008)+2× Halt phosphatase and protease inhibitor cocktail (Thermo Scientific, cat. #1861284), followed by sonicating each with microtip sonicator set at 5 for 8-10 seconds. Five ul of 10× NuPage Sample Reducing Agent (with […]) was to each sample followed by heat denaturing at 70 C for 10 min on PCR machine. A total of 10 μl per sample was loaded into each lane of a 4-20% Tris-Glycine Criterion 26-well gel (Biorad, cat. #345-0034) for the phospho-mu2 blot and 10 μl per lane in a 4-12% Bis-Tris (+MES buffer) NuPAGE 26-well gel (Invitrogen, cat. # WG1403BX10) for the mu2 blot. For controls, 2 ng of phospho-mu2 or 20 ng mu2/Flag proteins were loaded in the last well of each gel. After SDS-PAGE, samples on each gel were transferred to PVDF membrane using an iBlot and membranes were blocked for one hour in TBST+5% milk, followed by wash 3× for 5-10 min with TBST. Criterion gels were probed with rabbit anti-phospho-mu2 (1:5000; a rabbit polyclonal antibody produced by New England Peptide and affinity purified at Lexicon) in TBST+5% BSA, whereas, NuPAGE gels were probed with mouse anti-Flag (1:500; Sigma, cat. # F1804) in TBST+5% milk, and these primary antibodies were incubated overnight at 4° C. on a rocker. […]

[2] = system: formalin paw test in mice; test: formalin paw test (pain response); type: in vivo
Procedure: AAK1 homozygous (−/−) and their wild-type (+/+) littermates were tested using the formalin paw test in order to assess their acute and tonic nociceptive responses. For these tests, Automatic Nociception Analyzers (purchased from the Ozaki lab at University of California, San Diego) were used. A metal band was placed around the left hind paw of each mouse 30 minutes prior to testing. After the 30-minute acclimation period, 20 μl of 5% formalin is subcutaneously injected in the dorsal surface of the left hind paw. Mice were individually housed in cylindrical chambers for 45 minutes. Fresh 5% formalin solution was prepared by diluting formaldehyde (Formalde-fresh 20%, Fisher Scientific, Fair Lawn, N.J.) with distilled water. Investigatory compounds were administered 30 minutes prior to formalin injection.
A computer recorded flinches per minute, total flinches for phase I (acute phase=first 8 minutes), and total flinches for phase II (tonic phase=time between minutes 20-40) through an electromagnetic field. See Yaksh T L, Ozaki G, McCumber D, Rathbun M, Svensson C, Malkmus S, Yaksh M C. An automated flinch detecting system for use in the formalin nociceptive bioassay. J Appl Physiol., 2001; 90:2386-402.
The same test was used to confirm that the administration of an AAK1 inhibitor can also affect pain response.
A compound of the disclosure was tested in this assay at different doses. Gabapentin and pregabalin were used as positive controls. Results are shown below in Table 2, wherein the effect of gabapentin at 200 mg/kg is considered a 100% response, the % response for the other compounds is relative to the 200 mg/kg dose of gabapentin, “sc” means subcutaneous administration; “po” means oral administration.

[3] = 50 mg/kg sc, relative to gabapentin 200 mg/kg = 100%

T1 sequence (Q2M2I8 whole entry): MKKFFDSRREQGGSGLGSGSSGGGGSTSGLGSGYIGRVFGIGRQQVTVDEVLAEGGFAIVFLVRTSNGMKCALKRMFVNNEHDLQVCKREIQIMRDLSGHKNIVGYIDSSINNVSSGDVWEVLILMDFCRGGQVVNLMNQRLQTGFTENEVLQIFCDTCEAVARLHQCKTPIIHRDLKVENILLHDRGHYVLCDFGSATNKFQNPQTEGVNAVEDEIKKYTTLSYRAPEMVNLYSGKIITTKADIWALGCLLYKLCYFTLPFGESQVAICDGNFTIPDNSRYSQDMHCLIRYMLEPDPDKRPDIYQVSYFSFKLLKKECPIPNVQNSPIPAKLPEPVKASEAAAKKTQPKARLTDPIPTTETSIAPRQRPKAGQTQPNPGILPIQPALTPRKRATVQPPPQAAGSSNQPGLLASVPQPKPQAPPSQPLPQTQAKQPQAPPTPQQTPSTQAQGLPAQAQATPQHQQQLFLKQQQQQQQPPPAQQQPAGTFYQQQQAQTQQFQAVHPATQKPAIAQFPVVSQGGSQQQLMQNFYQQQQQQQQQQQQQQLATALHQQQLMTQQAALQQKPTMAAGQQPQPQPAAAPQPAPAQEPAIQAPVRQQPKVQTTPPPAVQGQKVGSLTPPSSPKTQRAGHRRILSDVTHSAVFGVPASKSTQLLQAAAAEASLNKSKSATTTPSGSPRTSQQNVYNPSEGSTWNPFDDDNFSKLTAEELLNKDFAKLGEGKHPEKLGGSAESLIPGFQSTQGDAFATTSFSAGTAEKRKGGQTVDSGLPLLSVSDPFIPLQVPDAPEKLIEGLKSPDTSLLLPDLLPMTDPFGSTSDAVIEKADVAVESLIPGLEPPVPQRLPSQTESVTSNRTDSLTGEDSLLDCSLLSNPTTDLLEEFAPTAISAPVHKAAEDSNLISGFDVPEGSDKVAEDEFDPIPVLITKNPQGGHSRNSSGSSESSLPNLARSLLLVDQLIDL
T2 sequence (Q2M2I8 whole entry): as above

| SMILES | IC50 (GST-Xa-hAAK1; given as IC50 range) | IC50 ([1]; given as IC50 range) | further results |
| --- | --- | --- | --- |
| Cc1nccc2c1c(=O)n(C)c1cc(OC[C@@H](N)CC(C)C)c(C(F)(F)F)cc21 [Example 75, (S)-8-(2-amino-4-methylpentyloxy)-4,6-dimethyl-9-(trifluoromethyl)benzo[c][2,7]naphthyridin-5(6H)-one] | 1 to 10 nM | 1 to 10 nM | – |
| Cc1nccc2c1c(=O)n(C)c1cc(OC[C@H](N)CC(C)C)c(C#N)cc21 [Example 78, (R)-8-(2-amino-4-methylpentyloxy)-4,6-dimethyl-5-oxo-5,6-dihydrobenzo[c][2,7]naphthyridine-9-carbonitrile] | – | 1 to 10 nM | IC50 (GST-Xa-hAAK1): 0.8 nM |
| Cc1nccc2c1c(=O)n(C)c1cc(OC[C@@H](N)CC(C)C)c(-c3cncs3)cc21 [Example 83, (S)-8-(2-amino-4-methylpentyloxy)-4,6-dimethyl-9-(thiazol-5-yl)benzo[c][2,7]naphthyridin-5(6H)-one] | 1 to 10 nM | 1 to 10 nM | – |
| CC(C)CC(C)(N)COc1ccc2c3c(F)cncc3c(=O)n(C)c2c1 (centres unmarked) [Example 97, 8-(2-amino-2,4-dimethylpentyloxy)-1-fluoro-6-methylbenzo[c][2,7]naphthyridin-5(6H)-one] | 1 to 10 nM | 10 to 100 nM | – |
| Cc1nccc2c1c(=O)[nH]c1cc(OC[C@@H](N)CC(C)C)c(F)cc12 [Example 101, (S)-8-(2-amino-4-methylpentyloxy)-9-fluoro-4-methylbenzo[c][2,7]naphthyridin-5(6H)-one] | 1 to 10 nM | – | IC50 [1]: 5.2 nM |
| Cc1nccc2c1c(=O)[nH]c1c(F)c(OC[C@@H](N)CC(C)C)c(Cl)cc12 [Example 103, (S)-8-(2-amino-4-methylpentyloxy)-9-chloro-7-fluoro-4-methylbenzo[c][2,7]naphthyridin-5(6H)-one] | 1 to 10 nM | 10 to 100 nM | – |
| Cc1nccc2c1c(=O)n(C)c1cc(OC[C@@H](N)CC=C(F)F)c(C#N)cc21 [Example 106, (S)-8-((2-amino-5,5-difluoropent-4-en-1-yl)oxy)-4,6-dimethyl-5-oxo-5,6-dihydrobenzo[c][2,7]naphthyridine-9-carbonitrile] | < 1 nM | < 1 nM | – |
| NCC1(CC(=O)O)CCCCC1 [Gabapentin, gabapentin] | – | – | Response [2, 3]: 60%; Response ([2]; 200 mg/kg sc, considered a 100% response): 100% |
| CC(C)C[C@H](CN)CC(=O)O [Pregabalin, pregabalin] | – | – | Response [2, 3]: 90% |
